Laboratory results as given in ChEMBL document CHEMBL3885881, “DrugMatrix”.

Species: Rattus norvegicus
Assay: DrugMatrix - Regimen: Daily Repeat
Assay type: toxicity, organism-based, Sprague-Dawley
Set-up: regimen Daily Repeat, gender Male, age 6-8 weeks
Details: in vivo, po, route oral GAVAGE, vehicle .5 % CMC; for ABSOLUTE BASOPHIL / ABSOLUTE EOSINOPHIL / ABSOLUTE LYMPHOCYTE / ABSOLUTE MONOCYTE / ABSOLUTE SEGMENTED NEUTROPHIL / BASOPHIL / EOSINOPHIL / ERYTHROCYTE COUNT / HEMATOCRIT / HEMOGLOBIN / LEUKOCYTE COUNT / LYMPHOCYTE / MEAN CORPUSCULAR HEMOGLOBIN / MEAN CORPUSCULAR HEMOGLOBIN CONCENTRATION / MONOCYTE / NEUTROPHIL / NUCLEATED RED BLOOD CELLS / PLATELET COUNT: tissue Blood; for ALANINE AMINOTRANSFERASE / ALBUMIN / ALKALINE PHOSPHATASE / ASPARTATE AMINOTRANSFERASE / BLOOD UREA NITROGEN / CARBON DIOXIDE / CHLORIDE / CHOLESTEROL / CREATINE PHOSPHOKINASE / CREATININE / GLUCOSE / LACTATE DEHYDROGENASE / LIPASE / PHOSPHORUS / POTASSIUM / SODIUM / TOTAL BILIRUBIN / TOTAL PROTEIN / URIC ACID: tissue Plasma
[1] = 3 mg/kg, 120 h, dose level Low, time 5 day
[2] = 2000 mg/kg, 72 h, dose level High, time 3 day
[3] = 2000 mg/kg, 120 h, dose level High, time 5 day

COc1cc2nc(N3CCN(C(=O)c4ccco4)CC3)nc(N)c2cc1OC [PRAZOSIN]
ABSOLUTE BASOPHIL [1]: 0 CELLS/uL
ABSOLUTE EOSINOPHIL [1]: 228.67 CELLS/uL
ABSOLUTE LYMPHOCYTE [1]: 11545.33 CELLS/uL
ABSOLUTE MONOCYTE [1]: 136 CELLS/uL
ABSOLUTE SEGMENTED NEUTROPHIL [1]: 1690 CELLS/uL
BASOPHIL [1]: 0%
EOSINOPHIL [1]: 1.67%
ERYTHROCYTE COUNT [1]: 5.54 x10E6/uL
HEMATOCRIT [1]: 34.63%
HEMOGLOBIN [1]: 13.5 G/DL
LEUKOCYTE COUNT [1]: 13.6 x10E3/uL
LYMPHOCYTE [1]: 85.33%
MEAN CORPUSCULAR HEMOGLOBIN [1]: 24.47 pg
MEAN CORPUSCULAR HEMOGLOBIN CONCENTRATION [1]: 39.03 G/DL
MONOCYTE [1]: 1%
NEUTROPHIL [1]: 12%
NUCLEATED RED BLOOD CELLS [1]: 0 /100WBC
PLATELET COUNT [1]: 1245 x10E3/uL
ALANINE AMINOTRANSFERASE [1]: 57.33 u/L
ALBUMIN [1]: 4.23 G/DL
ALKALINE PHOSPHATASE [1]: 336.33 u/L
ASPARTATE AMINOTRANSFERASE [1]: 106.67 u/L
BLOOD UREA NITROGEN [1]: 16.67 mg/dL
CARBON DIOXIDE [1]: 21.67 mmol/L
CHLORIDE [1]: 104.33 MEQ/L
CHOLESTEROL [1]: 73 mg/dL
CREATINE PHOSPHOKINASE [1]: 877.67 u/L
CREATININE [1]: 0.19 mg/dL
GLUCOSE [1]: 131.67 mg/dL
LACTATE DEHYDROGENASE [1]: 643.67 u/L
LIPASE [1]: 9.67 u/L
PHOSPHORUS [1]: 11.7 mg/dL
POTASSIUM [1]: 6.1 MEQ/L
SODIUM [1]: 144.23 MEQ/L
TOTAL BILIRUBIN [1]: 0.23 mg/dL
TOTAL PROTEIN [1]: 6.13 G/DL
URIC ACID [1]: 1.5 mg/dL
ABSOLUTE BASOPHIL [2]: 0 CELLS/uL
ABSOLUTE EOSINOPHIL [2]: 93.33 CELLS/uL
ABSOLUTE LYMPHOCYTE [2]: 7483.33 CELLS/uL
ABSOLUTE MONOCYTE [2]: 100 CELLS/uL
ABSOLUTE SEGMENTED NEUTROPHIL [2]: 856.67 CELLS/uL
BASOPHIL [2]: 0%
EOSINOPHIL [2]: 1%
ERYTHROCYTE COUNT [2]: 5.18 x10E6/uL
HEMATOCRIT [2]: 33.2%
HEMOGLOBIN [2]: 13 G/DL
LEUKOCYTE COUNT [2]: 8.53 x10E3/uL
LYMPHOCYTE [2]: 87.33%
MEAN CORPUSCULAR HEMOGLOBIN [2]: 25.1 pg
MEAN CORPUSCULAR HEMOGLOBIN CONCENTRATION [2]: 39.17 G/DL
MONOCYTE [2]: 1.33%
NEUTROPHIL [2]: 10.33%
NUCLEATED RED BLOOD CELLS [2]: 0 /100WBC
PLATELET COUNT [2]: 1248.33 x10E3/uL
ALANINE AMINOTRANSFERASE [2]: 55.33 u/L
ALBUMIN [2]: 3.8 G/DL
ALKALINE PHOSPHATASE [2]: 290.33 u/L
ASPARTATE AMINOTRANSFERASE [2]: 131.67 u/L
BLOOD UREA NITROGEN [2]: 18.33 mg/dL
CARBON DIOXIDE [2]: 24 mmol/L
CHLORIDE [2]: 105 MEQ/L
CHOLESTEROL [2]: 68.33 mg/dL
CREATINE PHOSPHOKINASE [2]: 1224.33 u/L
CREATININE [2]: 0.19 mg/dL
GLUCOSE [2]: 153 mg/dL
LACTATE DEHYDROGENASE [2]: 177.67 u/L
LIPASE [2]: 9.67 u/L
PHOSPHORUS [2]: 10.87 mg/dL
POTASSIUM [2]: 5.14 MEQ/L
SODIUM [2]: 144.9 MEQ/L
TOTAL BILIRUBIN [2]: 0.17 mg/dL
TOTAL PROTEIN [2]: 5.37 G/DL
URIC ACID [2]: 1.17 mg/dL
ABSOLUTE BASOPHIL [3]: 0 CELLS/uL
ABSOLUTE EOSINOPHIL [3]: 0 CELLS/uL
ABSOLUTE LYMPHOCYTE [3]: 9169.67 CELLS/uL
ABSOLUTE MONOCYTE [3]: 0 CELLS/uL
ABSOLUTE SEGMENTED NEUTROPHIL [3]: 630.33 CELLS/uL
BASOPHIL [3]: 0%
EOSINOPHIL [3]: 0%
ERYTHROCYTE COUNT [3]: 5.58 x10E6/uL
HEMATOCRIT [3]: 34%
HEMOGLOBIN [3]: 13.3 G/DL
LEUKOCYTE COUNT [3]: 9.8 x10E3/uL
LYMPHOCYTE [3]: 93.33%
MEAN CORPUSCULAR HEMOGLOBIN [3]: 23.83 pg
MEAN CORPUSCULAR HEMOGLOBIN CONCENTRATION [3]: 39.13 G/DL
MONOCYTE [3]: 0%
NEUTROPHIL [3]: 6.67%
NUCLEATED RED BLOOD CELLS [3]: 0 /100WBC
PLATELET COUNT [3]: 1205.67 x10E3/uL
ALANINE AMINOTRANSFERASE [3]: 63.33 u/L
ALBUMIN [3]: 3.8 G/DL
ALKALINE PHOSPHATASE [3]: 286.33 u/L
ASPARTATE AMINOTRANSFERASE [3]: 139.33 u/L
BLOOD UREA NITROGEN [3]: 16 mg/dL
CARBON DIOXIDE [3]: 21.33 mmol/L
CHLORIDE [3]: 104.67 MEQ/L
CHOLESTEROL [3]: 64.67 mg/dL
CREATINE PHOSPHOKINASE [3]: 1202.67 u/L
CREATININE [3]: 0.19 mg/dL
GLUCOSE [3]: 152 mg/dL
LACTATE DEHYDROGENASE [3]: 204 u/L
LIPASE [3]: 9 u/L
PHOSPHORUS [3]: 10.4 mg/dL
POTASSIUM [3]: 5.65 MEQ/L
SODIUM [3]: 146.07 MEQ/L
TOTAL BILIRUBIN [3]: 0.2 mg/dL
TOTAL PROTEIN [3]: 5.3 G/DL
URIC ACID [3]: 0.73 mg/dL
